Measured values from US10934283B2, “COMT inhibiting methods and compositions” (LIEBER INSTITUTE FOR BRAIN DEVELOPMENT, priority 2015, dated 2021).

Biological target: T1, catechol-O-methyltransferase (COMT) (Homo sapiens, UniProt P21964)
T1 construct: M51A variant) was expressed in HEK 293F cells
T1 sequence (P21964 52-271 limits assumed): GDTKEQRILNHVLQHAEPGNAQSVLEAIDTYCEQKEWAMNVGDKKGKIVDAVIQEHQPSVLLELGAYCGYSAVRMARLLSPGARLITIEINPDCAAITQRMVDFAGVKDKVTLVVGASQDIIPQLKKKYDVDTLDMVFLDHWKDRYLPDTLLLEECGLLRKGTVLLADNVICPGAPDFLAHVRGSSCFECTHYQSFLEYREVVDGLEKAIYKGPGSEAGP
Test: COMT inhibition assay (HTRF, production of SAH from SAM)
Assay type: biochemical
Details: table does not say MB-COMT or S-COMT
In short: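 Membranes from HEK293F cells expressing MB-COMT (M51A variant) incubated with 20 μM SAM and 1.5 μM dopamine plus compound (10 concentrations) for 40 min at 37 °C; S-COMT (Val158) at 0.15 ng/well used 100 μM dopamine, 15 min. SAH measured by HTRF against a standard curve; pIC50 from 4-parameter logistic fit.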

SMILES | Activity range (pIC50)
O=c1cc2n(cc1O)CCN(C1CCc3ccccc31)C2 (centres unmarked) [Example 84, 2-(2,3-dihydro-1H-inden-1-yl)-7-hydroxy-1,2,3,4-tetrahydro-8H-pyrido[1,2-a]pyrazin-8-one] | ++ (two plus signs (++) is associated with a pIC50 of from about 6 to 7)
CC(c1c(F)ccc(Cl)c1F)N1CCn2cc(O)c(=O)cc2C1 (centres unmarked) [Example 85, 2-[1-(3-chloro-2,6-difluorophenyl)ethyl]-7-hydroxy-1,2,3,4-tetrahydro-8H-pyrido[1,2-a]pyrazin-8-one] | +++ (three plus signs (+++) is associated with a pIC50 of above about 7)
O=c1cc2n(cc1O)CCN(C1CCCCc3ccccc31)C2 (centres unmarked) [Example 86, 7-hydroxy-2-(6,7,8,9-tetrahydro-5H-benzo[7]annulen-5-yl)-1,2,3,4-tetrahydro-8H-pyrido[1,2-a]pyrazin-8-one] | +++ (three plus signs (+++) is associated with a pIC50 of above about 7)
Cc1ccc(C)c(C(C)N2CCn3cc(O)c(=O)cc3C2)c1 (centres unmarked) [Example 87, 2-[1-(2,5-dimethylphenyl)ethyl]-7-hydroxy-1,2,3,4-tetrahydro-8H-pyrido[1,2-a]pyrazin-8-one] | +++ (three plus signs (+++) is associated with a pIC50 of above about 7)
O=c1cc2n(cc1O)CCN(C(Cc1ccccc1)c1ccccc1)C2 (centres unmarked) [Example 88, 2-(1,2-diphenylethyl)-7-hydroxy-1,2,3,4-tetrahydro-8H-pyrido[1,2-a]pyrazin-8-one] | +++ (three plus signs (+++) is associated with a pIC50 of above about 7)
CCC(c1ccccc1)N1CCn2cc(O)c(=O)cc2C1 (centres unmarked) [Example 89, 7-hydroxy-2-(1-phenylpropyl)-1,2,3,4-tetrahydro-8H-pyrido[1,2-a]pyrazin-8-one] | ++ (two plus signs (++) is associated with a pIC50 of from about 6 to 7)
O=c1cc2n(cc1O)CCN(C1CCCc3ccccc31)C2 (centres unmarked) [Example 90, 7-hydroxy-2-(1,2,3,4-tetrahydronaphthalen-1-yl)-1,2,3,4-tetrahydro-8H-pyrido[1,2-a]pyrazin-8-one] | +++ (three plus signs (+++) is associated with a pIC50 of above about 7)
COc1ccc2c(c1)C(N1CCn3cc(O)c(=O)cc3C1)CCC2 (centres unmarked) [Example 91, 7-hydroxy-2-(7-methoxy-1,2,3,4-tetrahydronaphthalen-1-yl)-1,2,3,4-tetrahydro-8H-pyrido[1,2-a]pyrazin-8-one] | +++ (three plus signs (+++) is associated with a pIC50 of above about 7)
Cc1cccc2c1CCC2N1CCn2cc(O)c(=O)cc2C1 (centres unmarked) [Example 92, 7-hydroxy-2-(4-methyl-2,3-dihdyro-1H-inden-1-yl)-1,2,3,4-tetrahydro-8H-pyrido[1,2-a]pyrazin-8-one] | +++ (three plus signs (+++) is associated with a pIC50 of above about 7)
CCCC(c1ccccc1)N1CCn2cc(O)c(=O)cc2C1 (centres unmarked) [Example 93, 7-hydroxy-2-(1-phenylbutyl)-1,2,3,4-tetrahydro-8H-pyrido[1,2-a]pyrazin-8-one] | ++ (two plus signs (++) is associated with a pIC50 of from about 6 to 7)
CC(c1ccc(C#N)cc1)N1CCn2cc(O)c(=O)cc2C1 (centres unmarked) [Example 94, 4-[1-(7-hydroxy-8-oxo-1,3,4,8-tetrahydro-2H-pyrido[1,2-a]pyrazin-2-yl)ethyl]benzonitrile] | ++ (two plus signs (++) is associated with a pIC50 of from about 6 to 7)
CC(c1cccc(C#N)c1)N1CCn2cc(O)c(=O)cc2C1 (centres unmarked) [Example 95, 3-[1-(7-hydroxy-8-oxo-1,3,4,8-tetrahydro-2H-pyrido[1,2-a]pyrazin-2-yl)ethyl]benzonitrile] | ++ (two plus signs (++) is associated with a pIC50 of from about 6 to 7)
CC(=O)Nc1cccc(C(C)N2CCn3cc(O)c(=O)cc3C2)c1 (centres unmarked) [Example 96, N-{3-[1-(7-hydroxy-8-oxo-1,3,4,8-tetrahydro-2H-pyrido[1,2-a]pyrazin-2-yl)ethyl]phenyl}acetamide] | ++ (two plus signs (++) is associated with a pIC50 of from about 6 to 7)
CC(c1cc(F)ccc1F)N1CCn2cc(O)c(=O)cc2C1 (centres unmarked) [Example 97, 2-[1-(2,5-difluorophenyl)ethyl]-7-hydroxy-1,2,3,4-tetrahydro-8H-pyrido[1,2-a]pyrazin-8-one] | +++ (three plus signs (+++) is associated with a pIC50 of above about 7)
CC(c1ccccc1F)N1CCn2cc(O)c(=O)cc2C1 (centres unmarked) [Example 98, 2-[1-(2-fluorophenyl)ethyl]-7-hydroxy-1,2,3,4-tetrahydro-8H-pyrido[1,2-a]pyrazin-8-one] | ++ (two plus signs (++) is associated with a pIC50 of from about 6 to 7)
CC(c1ccc(F)cc1)N1CCn2cc(O)c(=O)cc2C1 (centres unmarked) [Example 99, 2-[1-(4-fluorophenyl)ethyl]-7-hydroxy-1,2,3,4-tetrahydro-8H-pyrido[1,2-a]pyrazin-8-one] | ++ (two plus signs (++) is associated with a pIC50 of from about 6 to 7)

SMILES | Activity range (pIC50)
O=c1cc2n(cc1O)CCN(C(CO)c1ccccc1)C2 (centres unmarked) [Example 100, 7-hydroxy-2-(2-hydroxy-1-phenylethyl)-1,2,3,4-tetrahydro-8H-pyrido[1,2-a]pyrazin-8-one] | + (a single plus (+) is associated with a pIC50 of from about 4.5 to 6)
O=c1cc2n(cc1O)CCN(C(c1ccccc1)C(F)(F)F)C2 (centres unmarked) [Example 101, 7-hydroxy-2-(2,2,2-trifluoro-1-phenylethyl)-1,2,3,4-tetrahydro-8H-pyrido[1,2-a]pyrazin-8-one] | +++ (three plus signs (+++) is associated with a pIC50 of above about 7)
O=c1cc2n(cc1O)CCN(Cc1csc(-c3ccccc3)n1)C2 [Example 102, 7-hydroxy-2-[(2-phenyl-1,3-thiazol-4-yl)methyl]-1,2,3,4-tetrahydro-8H-pyrido[1,2-a]pyrazin-8-one] | ++ (two plus signs (++) is associated with a pIC50 of from about 6 to 7)
Cc1nn(-c2ccccc2)c(C)c1CN1CCn2cc(O)c(=O)cc2C1 [Example 103, 2-[(3,5-dimethyl-1-phenyl-1H-pyrazol-4-yl)methyl]-7-hydroxy-1,2,3,4-tetrahydro-8H-pyrido[1,2-a]pyrazin-8-one] | ++ (two plus signs (++) is associated with a pIC50 of from about 6 to 7)
O=c1cc2n(cc1O)CCN(C1(c3ccccc3)CC1)C2 [Example 104, 7-hydroxy-2-(1-phenylcyclopropyl)-3,4-dihydro-1H-pyrido[1,2-a]pyrazin-8-one] | +++ (three plus signs (+++) is associated with a pIC50 of above about 7)
O=c1cc2n(cc1O)CCN(C(CF)c1ccccc1)C2 (centres unmarked) [Example 105, 2-(2-fluoro-1-phenyl-ethyl)-7-hydroxy-3,4-dihydro-1H-pyrido[1,2-a]pyrazin-8-one] | +++ (three plus signs (+++) is associated with a pIC50 of above about 7)
O=c1cc2n(cc1O)CCN(C1(c3ccccc3Cl)CC1)C2 [Example 106, 2-[1-(2-chlorophenyl)cyclopropyl]-7-hydroxy-3,4-dihydro-1H-pyrido[1,2-a]pyrazin-8-one] | +++ (three plus signs (+++) is associated with a pIC50 of above about 7)
O=c1cc2n(cc1O)CCN(C(c1ccccc1)C(F)F)C2 (centres unmarked) [Example 107, 2-(2,2-difluoro-1-phenyl-ethyl)-7-hydroxy-3,4-dihydro-1H-pyrido[1,2-a]pyrazin-8-one] | +++ (three plus signs (+++) is associated with a pIC50 of above about 7)
O=c1cc2n(cc1O)CCN(c1nc3ccccc3s1)C2 [Example 108, 2-(1,3-benzothiazol-2-yl)-7-hydroxy-3,4-dihydro-1H-pyrido[1,2-a]pyrazin-8-one] | ++ (two plus signs (++) is associated with a pIC50 of from about 6 to 7)
O=c1cc2n(cc1O)CCN(C1CC1c1ccccc1)C2 (centres unmarked) [Example 109, 7-hydroxy-2-(2-phenylcyclopropyl)-3,4-dihydro-1H-pyrido[1,2-a]pyrazin-8-one] | ++ (two plus signs (++) is associated with a pIC50 of from about 6 to 7)
O=c1cc2n(cc1O)CCN(c1cccc3ncccc13)C2 [Example 110, 7-hydroxy-2-(5-quinolyl)-3,4-dihydro-1H-pyrido[1,2-a]pyrazin-8-one] | + (a single plus (+) is associated with a pIC50 of from about 4.5 to 6)
O=c1cc2n(cc1O)CCN(C1(c3ccccc3)COC1)C2 [Example 111, 7-hydroxy-2-(3-phenyloxetan-3-yl)-3,4-dihydro-1H-pyrido[1,2-a]pyrazin-8-one] | ++ (two plus signs (++) is associated with a pIC50 of from about 6 to 7)
O=c1cc2n(cc1O)CCN(c1ccccc1)C2 [Example 112, 7-hydroxy-2-phenyl-1,2,3,4-tetrahydro-8H-pyrido[1,2-a]pyrazin-8-one] | +++ (three plus signs (+++) is associated with a pIC50 of above about 7)
Cc1cccc(N2CCn3cc(O)c(=O)cc3C2)c1 [Example 113, 7-hydroxy-2-(3-methylphenyl)-1,2,3,4-tetrahydro-8H-pyrido[1,2-a]pyrazin-8-one] | ++ (two plus signs (++) is associated with a pIC50 of from about 6 to 7)
O=c1cc2n(cc1O)CCN(c1ccccc1OC(F)(F)F)C2 [Example 114, 7-hydroxy-2-[2-(trifluoromethoxy)phenyl]-1,2,3,4-tetrahydro-8H-pyrido[1,2-a]pyrazin-8-one] | ++ (two plus signs (++) is associated with a pIC50 of from about 6 to 7)
O=c1cc2n(cc1O)CCN(Cc1ccccc1)C2Cc1ccccc1 (centres unmarked) [Example 115, 1,2-dibenzyl-7-hydroxy-1,2,3,4-tetrahydro-8H-pyrido[1,2-a]pyrazin-8-one] | ++ (two plus signs (++) is associated with a pIC50 of from about 6 to 7)
